Broadly, the Kd is the concentration at which binding is half-saturated. A lower Kd goes with higher affinity.

Experimental findings from PMC5736629, “Allosteric modulation of protein-protein interactions by individual lipid binding events” (Nature Communications, 2017) are described below.

The target in one experiment is T1, AmtB–GlnK interaction (Escherichia coli, UniProt P69681).
T1 construct: pelB signal peptide (N, cleaved yes); 10x His-tag (N, cleaved yes); made in house; host or cells: AmtB: Escherichia coli C41(DE3), pET15b; stGlnK: Escherichia coli ArcticExpress (DE3) RIL, pET28b
Put plainly: Native MS lipid titration, GlnK binding to apo or lipid-bound AmtB; coupling factors (allosteric modulation). The conditions noted are these: for Kd: 50 µM ADP, 298 K; for Coupling factor a1: first bound lipid; for Coupling factor a2: second bound lipid; for Coupling factor a3: third bound lipid; for allosteric modulation of AmtB–GlnK (from coupling factors): result in words. On the procedure: (§1) A stock of ADP was prepared by dissolving the ammonium salt form of ADP in water followed by adjusting the pH with ammonium hydroxide to 7.0. Serial dilutions into MS buffer (200 mM ammonium acetate, 0.5% C8E4, and pH adjusted to 7.4 with ammonium hydroxide) supplemented with 5 mM BME was performed to prepare ADP at certain concentrations. Phospholipids were prepared as previously described. In brief, stock solutions of each phospholipid were resuspended in chloroform, aliqouted, and chloroform was removed by a steady stream on nitrogen gas. Lipid films were placed under vacuum overnight to prepare to resuspend in MS buffer supplemented with 5 mM 2-mercaptoethanol. Phospholipid concentration was determined by phosphorus analysis.

A further experiment has as its target T2, AmtB–GlnK complex (Escherichia coli, UniProt P69681).
T2 construct: pelB signal peptide (N, cleaved yes); 10x His-tag (N, cleaved yes); made in house; host or cells: AmtB: Escherichia coli C41(DE3), pET15b; stGlnK: Escherichia coli ArcticExpress (DE3) RIL, pET28b
Description: Native MS lipid titration, lipid binding to AmtB–GlnK (equilibrium-coupled binding model). The conditions noted are these: 50 µM ADP, 298 K. On the procedure: as §1

For the next experiment, the target named is T3, AmtB (Escherichia coli, UniProt P69681).
T3 construct: pelB signal peptide (N, cleaved yes); 10x His-tag (N, cleaved yes); made in house; host or cells: Escherichia coli C41(DE3), pET15b
Put plainly: Native MS lipid titration, lipid binding to AmtB (equilibrium-coupled binding model). The conditions noted are these: 50 µM ADP, 298 K. The procedure: as §1

[1] abbreviates: KD,AG, GlnK binding apo AmtB, from global fit of the titration with the named lipid.
Setting [2] is: KD,AL2G, GlnK binding AmtB bound to 2 lipids.
Setting [3] is: KD,AL3G, GlnK binding AmtB bound to 3 lipids.
Where [4] appears, read: KD,ALG, GlnK binding AmtB bound to 1 lipid.
[5] abbreviates: KD,AGL1, first lipid binding to AmtB–GlnK.
The mark [6] stands for this setting: KD,AGL2, second lipid binding to AmtB–GlnK.
Where [7] appears, read: KD,AGL3, third lipid binding to AmtB–GlnK.
Where [8] appears, read: KD,AL1, first lipid binding to AmtB.
Where [9] appears, read: KD,AL2, second lipid binding to AmtB.
Setting [10] is: KD,AL3, third lipid binding to AmtB.

T2 sequence (P0AC55 whole entry Y51F): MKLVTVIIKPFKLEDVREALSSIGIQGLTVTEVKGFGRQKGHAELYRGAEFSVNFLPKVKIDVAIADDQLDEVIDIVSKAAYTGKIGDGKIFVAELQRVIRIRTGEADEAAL
T2 sequence (P69681 23-428): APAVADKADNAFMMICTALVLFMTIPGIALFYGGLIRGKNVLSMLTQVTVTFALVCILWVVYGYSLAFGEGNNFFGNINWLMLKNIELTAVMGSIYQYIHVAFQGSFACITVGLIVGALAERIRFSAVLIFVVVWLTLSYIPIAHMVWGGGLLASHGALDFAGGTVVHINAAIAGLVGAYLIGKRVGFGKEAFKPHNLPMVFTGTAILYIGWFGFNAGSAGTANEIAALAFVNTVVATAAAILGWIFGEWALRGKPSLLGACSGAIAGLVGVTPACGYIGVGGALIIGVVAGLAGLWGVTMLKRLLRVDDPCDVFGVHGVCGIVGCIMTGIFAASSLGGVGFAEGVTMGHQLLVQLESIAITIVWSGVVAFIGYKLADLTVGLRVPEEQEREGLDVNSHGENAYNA
T1 sequence (P0AC55 whole entry Y51F): as the sequence (P0AC55 whole entry Y51F) above
T1 sequence (P69681 23-428): as the sequence (P69681 23-428) above
T3 sequence (P69681 23-428): as above

Consider `CCCCCCCCCCCC(=O)OC[C@H](COP(=O)(O)OCC(O)CO)OC(=O)CCCCCCCCCCC` (stereo partly shown) [DLPG], for which the Kd at AmtB–GlnK interaction (setting [1]) was 0.522 ± 0.0258 µM; at AmtB–GlnK interaction (setting [2]) it was 0.313 ± 0.0435 µM; on AmtB–GlnK interaction (setting [3]), 0.271 ± 0.0539 µM; on AmtB–GlnK interaction (setting [4]) it was 0.401 ± 0.0148 µM; on AmtB–GlnK complex (setting [5]) it was 17.1 ± 1.96 µM; at AmtB–GlnK complex (setting [6]) it was 28.6 ± 3.98 µM. The Kd at AmtB–GlnK complex (setting [7]) worked out at 29.1 ± 2.27 µM; on AmtB (setting [8]) it was 22.5 ± 3.23 µM; on AmtB (setting [9]) it was 39.1 ± 9.25 µM; on AmtB (setting [10]), 34.03 ± 0.15 µM. For the same molecule, the “Coupling factor a1” value at AmtB–GlnK interaction stood at 1.30 ± 0.04. Also, the “Coupling factor a2” value at AmtB–GlnK interaction turned out to be 1.35 ± 0.26. Moreover, the “Coupling factor a3” value on AmtB–GlnK interaction was 1.19 ± 0.15.

On to `CCCCCCCCCCCCCC(=O)OC[C@H](COP(=O)(O)OCC(O)CO)OC(=O)CCCCCCCCCCCCC` (stereo partly shown) [DMPG], for which the Kd stood at 0.551 ± 0.0134 µM on AmtB–GlnK interaction (setting [1]); 0.543 ± 0.0387 µM at AmtB–GlnK interaction (setting [2]); 0.523 ± 0.0284 µM on AmtB–GlnK interaction (setting [3]); 0.561 ± 0.0235 µM on AmtB–GlnK interaction (setting [4]); 6.92 ± 0.33 µM on AmtB–GlnK complex (setting [5]); 14.1 ± 0.35 µM at AmtB–GlnK complex (setting [6]). Besides, the Kd was determined as 19.6 ± 0.33 µM at AmtB–GlnK complex (setting [7]), 6.78 ± 0.19 µM at AmtB (setting [8]), 14.6 ± 1.2 µM on AmtB (setting [9]) and 20.27 ± 0.12 µM on AmtB (setting [10]). For the same molecule, the “Coupling factor a1” value at AmtB–GlnK interaction is given as 0.99 ± 0.05. Further, the “allosteric modulation of AmtB–GlnK (from coupling factors)” value at AmtB–GlnK interaction is recorded as “neutral allosteric modulation”. For the same molecule, the “Coupling factor a2” value on AmtB–GlnK interaction is given as 1.04 ± 0.04. Besides, the “Coupling factor a3” value at AmtB–GlnK interaction was 1.04 ± 0.02.

`CCCCCCCC/C=C\CCCCCCCC(=O)OC[C@H](COP(=O)(O)OCCN)OC(=O)CCCCCCC/C=C\CCCCCCCC` [DOPE (cis)]: the Kd on AmtB–GlnK interaction (setting [1]) came out at 0.517 ± 0.0504 µM; at AmtB–GlnK interaction (setting [2]) it was 0.315 ± 0.0269 µM; on AmtB–GlnK interaction (setting [3]), 0.206 ± 0.0621 µM; on AmtB–GlnK interaction (setting [4]), 0.421 ± 0.0375 µM; at AmtB–GlnK complex (setting [5]) it was 12.3 ± 0.39 µM; on AmtB–GlnK complex (setting [6]) it was 27.6 ± 1.09 µM. Moreover, the Kd was determined as 32.9 ± 2.11 µM at AmtB–GlnK complex (setting [7]), 15.1 ± 0.63 µM at AmtB (setting [8]), 36.9 ± 2.85 µM at AmtB (setting [9]) and 57.6 ± 13.3 µM at AmtB (setting [10]). Moreover, the “Coupling factor a1” value at AmtB–GlnK interaction was determined as 1.23 ± 0.02. Further, the “Coupling factor a2” value at AmtB–GlnK interaction stood at 1.34 ± 0.10. In addition, the “Coupling factor a3” value on AmtB–GlnK interaction stood at 1.71 ± 0.31.

With `CCCCCCCC/C=C/CCCCCCCC(=O)OC[C@H](COP(=O)(O)OCCN)OC(=O)CCCCCCC/C=C/CCCCCCCC` [DOPE (trans)], the Kd is 0.556 ± 0.0327 µM at AmtB–GlnK interaction (setting [1]); 0.121 ± 0.0256 µM at AmtB–GlnK interaction (setting [2]); 0.356 ± 0.0141 µM at AmtB–GlnK interaction (setting [4]); 19 ± 0.42 µM at AmtB–GlnK complex (setting [5]); 46 µM at AmtB–GlnK complex (setting [6]); 29.7 ± 2.18 µM at AmtB (setting [8]). At AmtB (setting [9]), this molecule had a Kd of 159 ± 57.3 µM. Besides, the “Coupling factor a1” value at AmtB–GlnK interaction stood at 1.57 ± 0.14. For the same molecule, on AmtB–GlnK interaction, the “allosteric modulation of AmtB–GlnK (from coupling factors)” value is reported as “greater positive allosteric modulation”. Moreover, the “Coupling factor a2” value at AmtB–GlnK interaction worked out at 3.29 ± 0.82. For the same molecule, the “Coupling factor a3” value on AmtB–GlnK interaction is 5.28 ± 1.82.

For the molecule `CCCCCCCCCCCCCCCC(=O)OC[C@H](COP(=O)(O)OCC(O)CO)OC(=O)CCCCCCCCCCCCCCC` (stereo partly shown) [DPPG], the Kd turned out to be 0.521 ± 0.0158 µM at AmtB–GlnK interaction (setting [1]); 0.23 ± 0.0559 µM on AmtB–GlnK interaction (setting [2]); 0.164 ± 0.0721 µM at AmtB–GlnK interaction (setting [3]); 0.424 ± 0.0361 µM on AmtB–GlnK interaction (setting [4]); 14.8 ± 0.64 µM at AmtB–GlnK complex (setting [5]); 31.7 ± 1.89 µM at AmtB–GlnK complex (setting [6]). For the same molecule, the Kd on AmtB–GlnK complex (setting [7]) came out at 53.4 ± 16.6 µM; at AmtB (setting [8]), 18.5 ± 1.85 µM; at AmtB (setting [9]), 63.8 ± 13.2 µM; at AmtB (setting [10]), 99.8 ± 45.3 µM. For the same molecule, the “Coupling factor a1” value on AmtB–GlnK interaction is listed as 1.25 ± 0.10. Also, the “Coupling factor a2” value on AmtB–GlnK interaction is on record as 1.98 ± 0.32. In addition, the “Coupling factor a3” value at AmtB–GlnK interaction amounted to 1.66 ± 0.33.
